Among the data in patent publication US20250270212A1, “CHIMERIC COMPOUNDS USEFUL IN TREATING DISEASES” (Padarn Therapeutics, Inc., priority 2021, published 2025) are EC50 values, retold here.

recombinant PARP1 (AA662-1014) protein, sequence (P09874 662-1014): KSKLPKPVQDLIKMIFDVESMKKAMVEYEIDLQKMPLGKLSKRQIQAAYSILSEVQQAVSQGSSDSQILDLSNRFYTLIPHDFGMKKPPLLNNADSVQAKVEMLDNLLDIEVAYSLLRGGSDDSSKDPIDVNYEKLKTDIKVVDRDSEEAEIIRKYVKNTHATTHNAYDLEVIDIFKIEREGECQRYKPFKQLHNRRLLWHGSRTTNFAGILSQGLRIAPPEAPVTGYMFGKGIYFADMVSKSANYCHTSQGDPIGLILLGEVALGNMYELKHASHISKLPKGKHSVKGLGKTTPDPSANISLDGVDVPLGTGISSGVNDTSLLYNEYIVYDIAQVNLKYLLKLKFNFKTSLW
recombinant Wee1 protein, sequence (P30291 whole entry): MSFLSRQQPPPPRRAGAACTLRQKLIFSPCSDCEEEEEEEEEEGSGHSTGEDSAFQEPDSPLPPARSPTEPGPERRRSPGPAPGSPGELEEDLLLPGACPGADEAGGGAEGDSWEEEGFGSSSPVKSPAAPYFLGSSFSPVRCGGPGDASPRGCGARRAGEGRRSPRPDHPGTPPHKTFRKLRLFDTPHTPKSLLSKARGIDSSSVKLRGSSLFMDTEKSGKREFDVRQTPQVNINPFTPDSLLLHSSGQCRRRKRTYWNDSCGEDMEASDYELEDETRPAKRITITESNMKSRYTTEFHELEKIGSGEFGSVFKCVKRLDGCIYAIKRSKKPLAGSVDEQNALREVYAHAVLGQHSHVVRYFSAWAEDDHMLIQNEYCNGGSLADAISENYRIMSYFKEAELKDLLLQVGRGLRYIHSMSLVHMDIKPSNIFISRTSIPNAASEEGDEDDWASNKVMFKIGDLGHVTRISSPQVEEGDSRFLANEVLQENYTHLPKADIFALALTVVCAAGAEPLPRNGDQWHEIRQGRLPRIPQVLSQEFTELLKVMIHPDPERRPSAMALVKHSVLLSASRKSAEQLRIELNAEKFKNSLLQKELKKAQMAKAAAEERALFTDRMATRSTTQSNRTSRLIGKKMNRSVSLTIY

The target in one test is recombinant PARP1 (AA662-1014) protein (Homo sapiens (Human), UniProt P09874). Kind of test: Tracer displacement fluorescence polarization assay. The conditions noted are these: displacement of AlexaFluor488 tracer from NAD+-binding site, PARP1 25 nM. As for the experimental part:
Example B. Tracer Displacement Fluorescence Polarization Assays
Displacement of AlexaFlour488 marked tracer from the NAD+-binding site of recombinant PARP1 (AA662-1014) protein (OriGene, Cat #: AR09368PU-L) was measured in vitro using Fluorescence polarization assay. The reaction was carried out in assay buffer (50 mM TRIS-HCl pH 7.4-7.8, 150 mM NaCl, 10 mM MgCl2, 0.001% Triton-X). 2×PARP1 (final concentration 25 nM) was diluted in 1× Assay buffer and 10 μl of the solution per well was added into 384-well Black Non-Treated Reaction plate (Corning, Cat #4511). Plates were centrifuged for 1 min at 200 g. The compounds were prepared in a 384-well Diamond Well Plate (Axygen, Cat #P-384-120SQ-C-S) as 400× solutions in DMSO and were transferred into Reaction plate using the Biomek FX liquid handling system with intermediate dilution down to 10× working solution in assay buffer in a separate 384-well Diamond Well Plate (Axygen, Cat #P-384-120SQ-C-S) (2 μl per well). Plates were centrifuged for 1 min at 200 g and incubated for 15 min at room temperature in the dark. Then 8 μL per well of 2.5× Tracer AlexaFluor488 (final concentration 1 nM) diluted in 1× Assay buffer was added into Reaction plate. 1× Assay buffer was used to make blank samples for instrument calculations. Plates were incubated for 30 minutes at room temperature in the dark. Fluorescence polarization was measured using Microplate Reader (BMG, ClarioStar Plus). The % tracer displacement was used to calculate the IC50 values. The IC50 values are shown in Table A, wherein “A” corresponds to IC50<0.01 μM, “B” corresponds to 0.01 μM≤IC50<0.1 μM, “C” 0.1 μM≤IC50<[…], and “D” corresponds to […].
On to `C=CCn1c(=O)c2cnc(N3CCN(C(=O)c4cc(Cc5n[nH]c(=O)c6ccccc56)ccc4F)CC3)nc2n1-c1cccc(C(C)(C)O)n1` [Compound 2, 4-{3-[(4-{2-Allyl-1-[6-(1-hydroxy-1-methylethyl)pyridin-2-yl]-3-oxo-2,3-dihydro-1H-pyrazolo[3,4-d]pyrimidin-6-yl}piperazin-1-yl)carbonyl]-4-fluorobenzyl}phthalazin-1(2H)-one], for which the EC50 (usually the concentration needed to bring the measured effect to its halfway point) was in the range of 10 to 100 nM. For `C=CCn1c(=O)c2cnc(NC3CCN(C(=O)c4cc(Cc5n[nH]c(=O)c6ccccc56)ccc4F)CC3)nc2n1-c1cccc(C(C)(C)O)n1` [Compound 4, 4-(3-{[4-({2-Allyl-1-[6-(1-hydroxy-1-methylethyl)pyridin-2-yl]-3-oxo-2,3-dihydro-1H-pyrazolo[3,4-d]pyrimidin-6-yl}amino)piperidin-1-yl]carbonyl}-4-fluorobenzyl)phthalazin-1(2H)-one], the EC50 was in the range of 100 to 1000 nM. On the same count and under the same terms, as for `Cn1c(=O)c2cnc(N3CCN(C(=O)c4cc(Cc5n[nH]c(=O)c6ccccc56)ccc4F)CC3)nc2n1-c1ccccn1` [Compound 5, 4-(4-Fluoro-3-{[4-(2-methyl-3-oxo-1-pyridin-2-yl-2,3-dihydro-1H-pyrazolo[3,4-d]pyrimidin-6-yl)piperazin-1-yl]carbonyl}benzyl)phthalazin-1(21)-one], the figure is 10 to 100 nM. Regarding `C=CCn1c(=O)c2cnc(NCCNC(=O)c3cc(Cc4n[nH]c(=O)c5ccccc45)ccc3F)nc2n1-c1cccc(C(C)(C)O)n1` [Compound 6, N-[2-({2-Allyl-1-[6-(1-hydroxy-1-methylethyl)pyridin-2-yl]-3-oxo-2,3-dihydro-1H-pyrazolo[3,4-d]pyrimidin-6-yl}amino)ethyl]-2-fluoro-5-[(4-oxo-3,4-dihydrophthalazin-1-yl)methyl]benzamide], the EC50 was in the range of 100 to 1000 nM.

`Cn1c(=O)c2cnc(Nc3ccc(N4CCN(C(=O)c5cc(Cc6n[nH]c(=O)c7ccccc67)ccc5F)CC4)cc3)nc2n1-c1cccc(C(C)(C)O)n1` [Compound 7, 4-[4-Fluoro-3-({4-[4-({1-[6-(1-hydroxy-1-methylethyl)pyridin-2-yl]-2-methyl-3-oxo-2,3-dihydro-1H-pyrazolo[3,4-d]pyrimidin-6-yl}amino)phenyl]piperazin-1-yl}carbonyl)benzyl]phthalazin-1(2H)-one]: the EC50 was less than 10 nM. Same read-out and setting: as for `Cn1c(=O)c2cnc(Nc3ccc(N4CCN(Cc5cc(Cc6n[nH]c(=O)c7ccccc67)ccc5F)CC4)cc3)nc2n1-c1cccc(C(C)(C)O)n1` [Compound 8, 4-[4-Fluoro-3-({4-[4-({1-[6-(1-hydroxy-1-methylethyl)pyridin-2-yl]-2-methyl-3-oxo-2,3-dihydro-1H-pyrazolo[3,4-d]pyrimidin-6-yl}amino)phenyl]piperazin-1-yl}methyl)benzyl]phthalazin-1(2H)-one], the figure is 100 to 1000 nM; as for `COCCn1c(=O)c2cnc(Nc3ccc(N4CCN(C(=O)c5cc(Cc6n[nH]c(=O)c7ccccc67)ccc5F)CC4)cc3)nc2n1-c1ccccn1` [Compound 9, 4-(4-Fluoro-3-{[4-(4-{[2-(2-methoxyethyl)-3-oxo-1-pyridin-2-yl-2,3-dihydro-1H-pyrazolo[3,4-d]pyrimidin-6-yl]amino}phenyl)piperazin-1-yl]carbonyl}benzyl)phthalazin-1(2H)-one], less than 10 nM; as for `Cn1c2nc(Nc3ccc(N4CCN(C(=O)c5cc(Cc6n[nH]c(=O)c7ccccc67)ccc5F)CC4)cc3)ncc2c(=O)n1-c1ccccn1` [Compound 12, 4-{4-Fluoro-3-[(4-{4-[(1-methyl-3-oxo-2-pyridin-2-yl-2,3-dihydro-1H-pyrazolo[3,4-d]pyrimidin-6-yl)amino]phenyl}piperazin-1-yl)carbonyl]benzyl}phthalazin-1(2H)-one], less than 10 nM. Same read-out and setting: as for `COCCn1c(=O)c2cnc(Nc3ccc(N4CCN(C(=O)c5cc(Cc6n[nH]c(=O)c7ccccc67)ccc5F)CC4)cc3)nc2n1-c1cccc(C(C)(C)O)n1` [Compound 13, 4-(4-Fluoro-3-{[4-(4-{[1-[6-(1-hydroxy-1-methylethyl)pyridin-2-yl]-2-(2-methoxyethyl)-3-oxo-2,3-dihydro-1H-pyrazolo[3,4-d]pyrimidin-6-yl]amino}phenyl)piperazin-1-yl]carbonyl}benzyl)phthalazin-1(2H)-one], the figure is less than 10 nM; as for `Cn1c2nc(Nc3ccc(N4CCN(C(=O)c5cc(Cn6c(=O)[nH]c(=O)c7c(F)cccc76)ccc5F)CC4)cc3)ncc2c(=O)n1-c1ccccn1` [Compound 17, 5-Fluoro-1-{4-fluoro-3-[(4-{4-[(1-methyl-3-oxo-2-pyridin-2-yl-2,3-dihydro-1H-pyrazolo[3,4-d]pyrimidin-6-yl)amino]phenyl}piperazin-1-yl)carbonyl]benzyl}quinazoline-2,4(1H,3H)-dione], less than 10 nM. For the compound `C=CCn1c(=O)c2cnc(Nc3ccc(N4CCN(C(=O)c5cc(Cn6c(=O)[nH]c(=O)c7c(F)cccc76)ccc5F)CC4)cc3)nc2n1-c1ccccn1` [Compound 28, 1-{3-[(4-{4-[(2-Allyl-3-oxo-1-pyridin-2-yl-2,3-dihydro-1H-pyrazolo[3,4-d]pyrimidin-6-yl)amino]phenyl}piperazin-1-yl)carbonyl]-4-fluorobenzyl}-5-fluoroquinazoline-2,4(1H,3H)-dione], the EC50 is less than 10 nM. For the compound `C=CCn1c(=O)c2cnc(Nc3ccc(N4CCN(Cc5cc(Cn6c(=O)[nH]c(=O)c7c(F)cccc76)ccc5F)CC4)cc3)nc2n1-c1cccc(C(C)(C)O)n1` [Compound 34, 1-[3-({4-[4-({2-Allyl-1-[6-(1-hydroxy-1-methylethyl)pyridin-2-yl]-3-oxo-2,3-dihydro-1H-pyrazolo[3,4-d]pyrimidin-6-yl}amino)phenyl]piperazin-1-yl}methyl)-4-fluorobenzyl]-5-fluoroquinazoline-2,4(1H,3H)-dione], the EC50 lay in the range of 100 to 1000 nM. Same read-out and setting: for `C=CCn1c(=O)c2cnc(Nc3ccc(N4CCN(Cc5ccc(-c6[nH]c7cc(F)cc8c7c6CCNC8=O)cc5)CC4)cc3)nc2n1-c1ccccn1` [Compound 39, 2-[4-[[4-[4-[[2-Allyl-3-oxo-1-(2-pyridyl)pyrazolo[3,4-d]pyrimidin-6-yl]amino]phenyl]piperazin-1-yl]methyl]phenyl]-6-fluoro-3,10-diazatricyclo[6.4.1.04,13]trideca-1,4,6,8(13)-tetraen-9-one] the value was 10 to 100 nM; for `C=CCn1c(=O)c2cnc(NC3CCN(Cc4ccc(-c5[nH]c6cc(F)cc7c6c5CCNC7=O)cc4)CC3)nc2n1-c1cccc(C(C)(C)O)n1` [Compound 47, 2-(4-{[4-({2-Allyl-1-[6-(1-hydroxy-1-methylethyl)pyridin-2-yl]-3-oxo-2,3-dihydro-1H-pyrazolo[3,4-d]pyrimidin-6-yl}amino)piperidin-1-yl]methyl}phenyl)-8-fluoro-1,3,4,5-tetrahydro-6H-azepino[5,4,3-cd]indol-6-one], less than 10 nM. The same measure, in the same setting: for `Cn1c2nc(Nc3ccc(N4CCC(c5nc6cccc(C(N)=O)c6[nH]5)CC4)cc3)ncc2c(=O)n1-c1ccccn1` [Compound 91] the value was 10 to 100 nM.

A further test addresses recombinant Wee1 protein (Homo sapiens (Human), UniProt P30291). Put plainly: Wee1 enzymatic activity inhibition, ADP-Glo luminescence assay. It is filed as biochemical. The conditions noted are these: recombinant Wee1, PolyE4Y1 substrate, 1 h room temperature. As for the experimental part:
Example A. Primary Assay Used to Determine Potency of Wee1 Enzymatic Activity Inhibition
Compound activity was determined using recombinant Wee1 protein (BPS, Cat #40412) and PolyE4Y1 Substrate (Poly(Glu,Tyr) sodium salt, Sigma, Cat #P0275-25MG) in an in vitro enzymatic reaction. The enzymatic assay used to determine activity was a Luminescence assay using a Microplate Reader (BMG, ClarioStar Plus). The enzymatic reaction was carried out in assay buffer (40 mM TRIS-HCl pH 7.4-7.6, 20 mM MgCl2, 0.05 mM DTT, 0.1 mg/ml BSA, 5 mM MnCl2). The compounds were dispensed on a 384 well Diamond Well Plate (Axigen, Cat #P-384-120SQ-C-S) using the Biomek FX liquid handling system at 100× solutions of compounds in DMSO. 2×Wee1-PolyE4Y1 mix (final concentration 0.85 ng/μl of Wee1 and 0.2 μg/μl of PolyE4Y1) was prepared in 1× Assay buffer and 5.5 μl of mixture per well was added into 384w white Reaction plate with NBS (Corning, Cat #4513). 5.5 μl of PolyE4Y1 substrate w/o Wee1 in 1× buffer was used for negative control. Plates were centrifuged for 1 min at 100 g. Next step the Compounds were added to Reaction plate using Biomek station via following steps: 1 μl of 100× compounds (in DMSO) were mixed thoroughly with 49 μl of 2×10 μM ATP in Assay Buffer, then 5.5 μl of this mixture was added to Reaction plate with 5.5 μl of Wee1-PolyE4Y1 mix. Plates were centrifuged for 1 min at 100 g and incubated for 1 h at room temperature. Next 3 μL of ADP-Glo reagent (Promega, ADP-Glo™ Kinase Assay, Cat #V9102) per well was added. Plates were incubated for 30 minutes at room temperature. Then 6 μL of Kinase detection reagent (Promega, ADP-Glo™ Kinase Assay, Cat #V9102) per well was added and the Luminescence was measured using Microplate Reader. The % inhibition was then used to calculate the IC50 values. The IC50 values are shown in Table A, wherein “A” corresponds to IC50<0.01 μM, “B” corresponds to 0.01 μM≤IC50<0.1 μM, “C” 0.1 μM≤IC50<1 μM, and “D” corresponds to […].
On the technique in general: ADP-Glo turns the ADP formed in a reaction into a luminescent signal.
Turning to `COCCn1c(=O)c2cnc(Nc3ccc(N4CCN(C(=O)c5cc(Cc6n[nH]c(=O)c7ccccc67)ccc5F)CC4)cc3)nc2n1-c1ccccn1` [Compound 9, 4-(4-Fluoro-3-{[4-(4-{[2-(2-methoxyethyl)-3-oxo-1-pyridin-2-yl-2,3-dihydro-1H-pyrazolo[3,4-d]pyrimidin-6-yl]amino}phenyl)piperazin-1-yl]carbonyl}benzyl)phthalazin-1(2H)-one], the EC50 lay within 10 to 100 nM.

For the compound `COCCn1c(=O)c2cnc(Nc3ccc(N4CCN(C(=O)c5cc(Cc6n[nH]c(=O)c7ccccc67)ccc5F)CC4)cc3)nc2n1-c1cccc(C(C)(C)O)n1` [Compound 13, 4-(4-Fluoro-3-{[4-(4-{[1-[6-(1-hydroxy-1-methylethyl)pyridin-2-yl]-2-(2-methoxyethyl)-3-oxo-2,3-dihydro-1H-pyrazolo[3,4-d]pyrimidin-6-yl]amino}phenyl)piperazin-1-yl]carbonyl}benzyl)phthalazin-1(2H)-one], the EC50 was in the range of 10 to 100 nM.
